Measured values reported in ChEMBL document CHEMBL5316328, “Discovery of AXL Degraders with Improved Potencies in Triple-Negative Breast Cancer (TNBC) Cells” (J Med Chem, 2023).
The source made the active and inactive calls. No cut-off for these calls is given here.

What was measured:
[1] = tested on: MDA-MB-436; experiment: Antiproliferative activity against human MDA-MB-436 cells expressing AXL assessed as inhibition of cell growth incubated for 72 hrs by CCK8 assay; format: functional, cell-based; conditions: MDA-MB-436, 72 h
[2] = biological target: T1, E3 ubiquitin-protein ligase ZFP91 (Homo sapiens) (UniProt Q96JP5); experiment: Induction of ZFP91 degradation in human MDA-MB-231 cells at 10 uM incubated for 24 hrs by Western blot analysis; format: cell-based
T1 sequence (whole entry): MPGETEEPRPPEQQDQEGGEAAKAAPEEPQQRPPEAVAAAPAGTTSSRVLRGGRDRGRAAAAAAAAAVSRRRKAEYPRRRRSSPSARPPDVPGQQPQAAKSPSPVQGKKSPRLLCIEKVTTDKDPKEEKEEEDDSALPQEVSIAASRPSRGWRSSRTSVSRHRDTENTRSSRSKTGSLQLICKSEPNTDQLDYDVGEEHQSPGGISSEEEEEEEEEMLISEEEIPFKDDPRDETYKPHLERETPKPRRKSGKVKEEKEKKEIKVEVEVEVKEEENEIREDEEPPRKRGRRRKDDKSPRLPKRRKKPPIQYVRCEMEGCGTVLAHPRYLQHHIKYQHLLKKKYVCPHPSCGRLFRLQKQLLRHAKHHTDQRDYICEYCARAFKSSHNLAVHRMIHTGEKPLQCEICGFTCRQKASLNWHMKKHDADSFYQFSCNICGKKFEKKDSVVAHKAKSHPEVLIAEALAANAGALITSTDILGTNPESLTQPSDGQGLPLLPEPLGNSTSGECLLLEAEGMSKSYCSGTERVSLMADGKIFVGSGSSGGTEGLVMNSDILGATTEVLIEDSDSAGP

[3] = tested on: MDA-MB-231; experiment: Antitumor activity against human MDA-MB-231 cells xenografted in Balb/c nude mouse assessed as tumor growth inhibition at 10 mg/kg, ip administered for 22 days and measured 24 hrs post last dose relative to control; format: functional; conditions: MDA-MB-231, 552 h, time 23 day, read-out: TGI
[4] = tested on: MDA-MB-231; experiment: Induction of apoptosis in human MDA-MB-231 cells assessed as necrotic cells at 33.3 nM incubated for 48 hrs by Annexin V-PE staining based flow cytometric analysis (reference value: 2.64 to 3.23%); format: functional
[5] = Toxicity in Balb/c nude mouse xenografted with human MDA-MB-231 cells assessed as effect on body weight at 10 to 20 mg/kg, ip administered for 22 days and measured 24 hrs post last dose; format: organism-based; conditions: in vivo, 552 h, dose 10-20 mg/kg, time 23 day
[6] = tested on: MDA-MB-231; experiment: Antiproliferative activity against human MDA-MB-231 cells expressing AXL assessed as inhibition of cell growth incubated for 72 hrs by CCK8 assay; format: functional, cell-based; conditions: MDA-MB-231, 72 h
[7] = tested on: MDA-MB-231; experiment: Induction of cell cycle arrest in human MDA-MB-231 cells assessed as S phase cells at 300 nM incubated for 24 hrs by PI staining based flow cytometric analysis (reference value: 9.64 to 10.79%); format: functional
[8] = biological target: T2, Protein cereblon/Tyrosine-protein kinase receptor UFO (Homo sapiens, UniProt P30530+Q96SW2); experiment: PROTAC activity at CRBN/AXL in human MDA-MB-231 cells assessed as induction of AXL degradation at 40 nM preincubated with MLN-4924 for 2 hrs followed by compound treatment and measured after 24 hrs by Western blot analysis; format: cell-based
T2 sequence (P30530 26-894 limits assumed): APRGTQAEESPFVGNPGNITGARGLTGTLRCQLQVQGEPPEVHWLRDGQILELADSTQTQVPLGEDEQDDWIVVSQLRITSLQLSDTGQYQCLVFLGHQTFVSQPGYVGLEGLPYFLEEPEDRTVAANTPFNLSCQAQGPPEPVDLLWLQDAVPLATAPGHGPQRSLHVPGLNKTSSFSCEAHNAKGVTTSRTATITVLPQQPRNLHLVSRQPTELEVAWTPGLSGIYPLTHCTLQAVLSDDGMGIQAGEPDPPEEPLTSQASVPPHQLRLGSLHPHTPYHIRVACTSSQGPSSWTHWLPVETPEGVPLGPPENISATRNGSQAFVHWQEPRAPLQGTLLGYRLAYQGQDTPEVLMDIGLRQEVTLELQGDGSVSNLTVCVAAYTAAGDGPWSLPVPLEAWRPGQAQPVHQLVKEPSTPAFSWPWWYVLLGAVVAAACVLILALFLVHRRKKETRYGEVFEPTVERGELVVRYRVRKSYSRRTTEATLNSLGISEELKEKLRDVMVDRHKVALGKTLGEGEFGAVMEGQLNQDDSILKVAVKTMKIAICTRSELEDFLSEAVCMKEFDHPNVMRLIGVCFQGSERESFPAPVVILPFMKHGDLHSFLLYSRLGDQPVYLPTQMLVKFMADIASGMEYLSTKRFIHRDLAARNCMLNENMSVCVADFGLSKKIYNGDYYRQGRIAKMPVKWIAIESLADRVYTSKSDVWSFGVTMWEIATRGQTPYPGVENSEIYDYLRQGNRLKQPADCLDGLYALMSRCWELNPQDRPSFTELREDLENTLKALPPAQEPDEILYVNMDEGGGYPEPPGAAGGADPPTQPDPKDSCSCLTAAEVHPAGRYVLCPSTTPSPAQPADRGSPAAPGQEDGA
T2 sequence (Q96SW2 whole entry partner): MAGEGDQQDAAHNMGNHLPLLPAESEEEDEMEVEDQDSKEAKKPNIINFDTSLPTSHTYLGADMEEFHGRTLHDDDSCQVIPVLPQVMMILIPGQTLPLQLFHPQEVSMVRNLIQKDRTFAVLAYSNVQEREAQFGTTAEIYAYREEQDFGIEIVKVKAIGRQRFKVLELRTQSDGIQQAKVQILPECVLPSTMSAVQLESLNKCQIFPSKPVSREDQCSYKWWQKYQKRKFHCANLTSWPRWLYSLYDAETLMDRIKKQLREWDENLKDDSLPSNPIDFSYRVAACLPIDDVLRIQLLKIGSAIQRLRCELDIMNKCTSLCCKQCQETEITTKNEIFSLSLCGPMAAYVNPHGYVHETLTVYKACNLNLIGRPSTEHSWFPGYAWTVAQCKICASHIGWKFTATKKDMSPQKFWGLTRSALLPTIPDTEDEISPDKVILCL

[9] = tested on: MDA-MB-231; experiment: Induction of apoptosis in human MDA-MB-231 cells assessed as viable cells at 300 nM incubated for 48 hrs by Annexin V-PE staining based flow cytometric analysis (reference value: 92.59 to 92.71%); format: functional; conditions: read-out: Activity
[10] = biological target: T2, Protein cereblon/Tyrosine-protein kinase receptor UFO; experiment: PROTAC activity at CRBN/AXL in human MDA-MB-231 cells assessed as induction of AXL degradation by measuring ubiquitination of AXL at 40 nM preincubated with MG-132 for 2 hrs followed by compound treatment and measured after 24 hrs by coimmunoprecipitation analysis; format: cell-based
[11] = tested on: MDA-MB-231; experiment: Antitumor activity against human MDA-MB-231 cells xenografted in Balb/c nude mouse assessed as tumor growth inhibition at 20 mg/kg, ip administered for 22 days and measured 24 hrs post last dose relative to control; format: functional; conditions: MDA-MB-231, 552 h, time 23 day, read-out: TGI
[12] = biological target: Serine/threonine-protein kinase AKT (Homo sapiens) (UniProt P31751+Q9Y243+P31749); experiment: Inhibition of AKT phosphorylation in human MDA-MB-231 incubated for 18 hrs by Western blot analysis; format: cell-based; conditions: dose 1.2-100 nM
Chain of Serine/threonine-protein kinase AKT (Homo sapiens) (P31749 whole entry, looked up): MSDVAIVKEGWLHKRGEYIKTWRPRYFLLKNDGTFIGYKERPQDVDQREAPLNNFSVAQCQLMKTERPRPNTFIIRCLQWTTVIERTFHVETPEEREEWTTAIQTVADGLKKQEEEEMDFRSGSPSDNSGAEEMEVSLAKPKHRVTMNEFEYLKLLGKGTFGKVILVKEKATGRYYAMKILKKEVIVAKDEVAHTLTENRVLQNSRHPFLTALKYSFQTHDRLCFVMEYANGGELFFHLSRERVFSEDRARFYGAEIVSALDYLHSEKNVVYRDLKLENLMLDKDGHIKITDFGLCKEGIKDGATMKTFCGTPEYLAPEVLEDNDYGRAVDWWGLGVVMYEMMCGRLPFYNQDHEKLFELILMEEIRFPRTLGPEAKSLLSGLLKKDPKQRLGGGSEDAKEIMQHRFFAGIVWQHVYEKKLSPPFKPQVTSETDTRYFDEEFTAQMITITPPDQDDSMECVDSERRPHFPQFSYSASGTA
Chain of Serine/threonine-protein kinase AKT (Homo sapiens) (P31751 whole entry, looked up): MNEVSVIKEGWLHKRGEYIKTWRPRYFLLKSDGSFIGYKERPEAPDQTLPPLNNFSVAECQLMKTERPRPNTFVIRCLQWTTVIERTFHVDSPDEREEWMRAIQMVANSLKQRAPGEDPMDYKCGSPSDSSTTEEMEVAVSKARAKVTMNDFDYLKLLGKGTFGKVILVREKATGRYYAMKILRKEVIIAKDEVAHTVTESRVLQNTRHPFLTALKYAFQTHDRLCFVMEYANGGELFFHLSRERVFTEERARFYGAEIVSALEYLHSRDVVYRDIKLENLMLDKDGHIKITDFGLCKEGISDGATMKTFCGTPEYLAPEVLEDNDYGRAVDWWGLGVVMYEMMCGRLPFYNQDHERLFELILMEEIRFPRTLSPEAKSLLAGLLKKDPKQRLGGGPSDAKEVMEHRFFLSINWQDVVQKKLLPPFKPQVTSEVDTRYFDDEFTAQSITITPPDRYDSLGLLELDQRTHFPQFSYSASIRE
Chain of Serine/threonine-protein kinase AKT (Homo sapiens) (Q9Y243 whole entry, looked up): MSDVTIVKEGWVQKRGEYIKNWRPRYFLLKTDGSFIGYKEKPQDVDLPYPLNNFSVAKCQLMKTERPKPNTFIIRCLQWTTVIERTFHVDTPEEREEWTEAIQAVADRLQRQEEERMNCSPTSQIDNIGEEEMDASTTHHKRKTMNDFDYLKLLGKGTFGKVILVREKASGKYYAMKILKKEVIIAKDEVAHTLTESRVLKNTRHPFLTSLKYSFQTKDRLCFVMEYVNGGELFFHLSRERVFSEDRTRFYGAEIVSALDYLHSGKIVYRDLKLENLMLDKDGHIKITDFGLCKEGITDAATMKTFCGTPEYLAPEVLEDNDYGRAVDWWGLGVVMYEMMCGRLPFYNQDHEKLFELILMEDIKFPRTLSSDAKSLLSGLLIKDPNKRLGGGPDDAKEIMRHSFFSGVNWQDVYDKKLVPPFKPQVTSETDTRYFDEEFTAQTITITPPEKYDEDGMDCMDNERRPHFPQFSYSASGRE

[13] = tested on: MDA-MB-231; experiment: Induction of cell cycle arrest in human MDA-MB-231 cells assessed as accumulation of cell at G2/M phase at 100 nM incubated for 24 hrs by PI staining based flow cytometric analysis (reference value: 24.34 to 24.44%); format: functional
[14] = tested on: MDA-MB-231; experiment: Inhibition of cell invasion in human MDA-MB-231 cells at 3.7 to 100 nM incubated for 18 hrs by transwell assay; format: functional, cell-based; conditions: dose 3.7-100 nM
[15] = tested on: MDA-MB-231; experiment: Induction of cell cycle arrest in human MDA-MB-231 cells assessed as S phase cells at 33.3 nM incubated for 24 hrs by PI staining based flow cytometric analysis (reference value: 9.64 to 10.79%); format: functional
[16] = tested on: MDA-MB-231; experiment: Induction of apoptosis in human MDA-MB-231 cells assessed as early apoptotic cells at 300 nM incubated for 48 hrs by Annexin V-PE staining based flow cytometric analysis (reference value: 3.95 to 3.74%); format: functional
[17] = tested on: MDA-MB-231; experiment: Antiproliferative activity against human MDA-MB-231 cells assessed as reduction in cell viability preincubated with N-(4-((6,7-dimethoxyquinazolin-4-yl)oxy)-3-fluorophenyl)-6-ethyl-1,2-dimethyl-4-oxo-1,4-dihydroquinoline-3-carboxamide for 6 hrs followed by compound treatment and measured after 24 hrs by CCK8 assay; format: functional, cell-based
[18] = organism: Homo sapiens; experiment: Antitumor activity against patient-derived breast cancer organoid assessed as decrease in organoid size at 5 uM incubated for 120 hrs by bright-field imaging microscopic analysis; format: functional, tissue-based
[19] = tested on: MDA-MB-231; experiment: Induction of cell cycle arrest in human MDA-MB-231 cells assessed as decrease in CDK2 level at 11.1 to 300 nM by Western blot analysis; format: functional, cell-based; conditions: dose 11.1-300 nM
[20] = tested on: MDA-MB-231; experiment: Inhibition of migration in human MDA-MB-231 cells incubated for 18 hrs by transwell assay; format: functional, cell-based; conditions: dose 3.7-100 nM
[21] = tested on: MDA-MB-231; experiment: Induction of apoptosis in human MDA-MB-231 cells assessed as early apoptotic cells at 33.3 nM incubated for 48 hrs by Annexin V-PE staining based flow cytometric analysis (reference value: 3.95 to 3.74%); format: functional
[22] = biological target: T2, Protein cereblon/Tyrosine-protein kinase receptor UFO; experiment: PROTAC activity at CRBN/AXL in human MDA-MB-231 cells assessed as induction of AXL degradation at 40 nM incubated for 18 to 24 hrs by Western blot analysis; format: cell-based; conditions: time 18-24 hrs
[23] = biological target: ALK tyrosine kinase receptor (Homo sapiens, UniProt Q9UM73); experiment: Inhibition of ALK (unknown origin)
Chain of ALK tyrosine kinase receptor (Q9UM73 whole entry): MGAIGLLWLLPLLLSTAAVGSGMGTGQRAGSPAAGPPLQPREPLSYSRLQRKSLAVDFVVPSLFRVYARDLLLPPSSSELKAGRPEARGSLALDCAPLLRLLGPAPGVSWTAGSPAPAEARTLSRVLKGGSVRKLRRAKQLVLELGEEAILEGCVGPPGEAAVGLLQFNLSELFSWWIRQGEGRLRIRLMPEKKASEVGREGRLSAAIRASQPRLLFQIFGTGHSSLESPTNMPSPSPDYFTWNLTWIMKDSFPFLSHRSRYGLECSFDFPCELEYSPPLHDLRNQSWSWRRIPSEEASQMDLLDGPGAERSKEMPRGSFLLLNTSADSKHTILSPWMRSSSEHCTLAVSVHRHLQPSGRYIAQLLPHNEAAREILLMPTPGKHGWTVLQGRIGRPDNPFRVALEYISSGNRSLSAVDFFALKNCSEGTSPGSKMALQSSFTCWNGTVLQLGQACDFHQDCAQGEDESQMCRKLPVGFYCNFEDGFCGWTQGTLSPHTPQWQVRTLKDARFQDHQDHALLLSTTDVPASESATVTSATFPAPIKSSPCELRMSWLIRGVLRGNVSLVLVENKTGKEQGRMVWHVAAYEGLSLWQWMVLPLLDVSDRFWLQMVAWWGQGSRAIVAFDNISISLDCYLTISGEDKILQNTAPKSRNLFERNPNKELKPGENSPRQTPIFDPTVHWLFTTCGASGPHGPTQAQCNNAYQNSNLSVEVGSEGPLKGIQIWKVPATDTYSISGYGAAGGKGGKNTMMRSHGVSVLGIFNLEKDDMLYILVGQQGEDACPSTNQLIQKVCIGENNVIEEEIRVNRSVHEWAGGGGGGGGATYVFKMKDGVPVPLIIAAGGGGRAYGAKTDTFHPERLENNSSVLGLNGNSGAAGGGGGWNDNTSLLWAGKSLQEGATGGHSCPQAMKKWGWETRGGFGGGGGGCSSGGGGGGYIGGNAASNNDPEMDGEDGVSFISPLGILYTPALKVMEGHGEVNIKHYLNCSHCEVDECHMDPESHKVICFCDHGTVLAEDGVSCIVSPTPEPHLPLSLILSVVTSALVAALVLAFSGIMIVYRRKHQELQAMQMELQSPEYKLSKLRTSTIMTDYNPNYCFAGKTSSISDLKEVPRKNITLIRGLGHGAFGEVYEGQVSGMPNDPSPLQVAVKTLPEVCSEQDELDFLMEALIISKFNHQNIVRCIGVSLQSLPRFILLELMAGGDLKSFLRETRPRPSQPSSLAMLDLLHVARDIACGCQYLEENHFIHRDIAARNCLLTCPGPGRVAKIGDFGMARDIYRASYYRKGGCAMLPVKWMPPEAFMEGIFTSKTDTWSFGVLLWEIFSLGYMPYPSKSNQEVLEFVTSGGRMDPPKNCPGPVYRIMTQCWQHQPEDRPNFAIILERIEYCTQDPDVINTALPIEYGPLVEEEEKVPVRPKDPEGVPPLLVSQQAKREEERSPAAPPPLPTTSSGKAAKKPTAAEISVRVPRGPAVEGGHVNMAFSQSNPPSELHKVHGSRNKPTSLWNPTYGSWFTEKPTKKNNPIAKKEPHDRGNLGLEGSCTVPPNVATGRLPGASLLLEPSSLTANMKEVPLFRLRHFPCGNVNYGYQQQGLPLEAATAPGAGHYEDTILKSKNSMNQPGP

[24] = tested on: MDA-MB-231; experiment: Induction of apoptosis in human MDA-MB-231 cells assessed as late apoptotic cells at 300 nM incubated for 48 hrs by Annexin V-PE staining based flow cytometric analysis (reference value: 0.32 to 0.82%); format: functional
[25] = biological target: T2, Protein cereblon/Tyrosine-protein kinase receptor UFO; experiment: PROTAC activity at CRBN/AXL in human MDA-MB-436 cells expressing AXL assessed as induction of AXL degradation at 1.6 to 1000 nM incubated for 24 hrs by Western blot analysis; format: cell-based; conditions: dose 1.6-1000 nM

CCc1ccc2c(c1)c(=O)c(C(=O)Nc1ccc(Oc3ncnc4cc(OCCCCCC(=O)Nc5ccc6c(c5)CN(C5CCC(=O)NC5=O)C6=O)c(OC)cc34)c(F)c1)c(C)n2C (stereo not given)
IC50 [1]: 5 nM | Activity [2]: inactive | inhibition in vivo at 10 mg/kg [3]: 40.9% | Activity [4]: 1.2% | Activity [5]: Non-Toxic | IC50 [6]: 10 nM | Activity [7]: 16.29% | Activity [8]: inactive | viability at 0.3 µM [9]: 74.1% | Activity [10]: inactive | inhibition in vivo at 20 mg/kg [11]: 62.5% | inhibition [12]: Dose-Dependent Effect | Activity [13]: 31.16% | inhibition [14]: Active | Activity [15]: 14.52% | Activity [16]: 20.49% | Activity [17]: inactive | Activity [18]: Active | Activity [19]: Active | inhibition [20]: Dose-Dependent Effect | Activity [21]: 6.69% | Activity [22]: Active | IC50 [23]: 4.94 nM | Activity [24]: 0.79% | Activity [25]: Active
